Key:
[1] = Toxicity in mice treated with MEB; format: in vivo; settings: dose approximated 0.7 g/kg/day
[2] = system: spleen cells from DBA/2 mice; assay: Mixed lymphocyte response (MLR), alloantigen-specific T cell unresponsiveness; format: cell-based
Protocol: (FIG. 6A) Spleen cells from DBA/2 mice (H-2^d) were stimulated in a primary mixed lymphocyte response (MLR) with irradiated spleen cells or from C57BL/10 mice (H-2^b) in the presence (∘) or absence (●) of MEB (1 mM). As a negative control some wells are stimulated with spleen cells from DBA/2 mice (▾). Proliferation is measured on day 5. (FIG. 6B) After 3 days, some wells in the primary MLR cultures are washed, and rested for a further 2 days. The spleen cells that were stimulated in the primary MLR with spleen cells from C57BL/10 mice in the presence (∘) or absence (●) of MEB are then isolated and reincubated with either the original alloantigen (spleen cells from C57BL/10 mice), with a third-party alloantigen [spleen cells from C3H/HeJ mice (H-2k)], or with IL-2 (Con A CM).
The ability of MEB to induce alloantigen-specific T cell unresponsiveness is shown by incubating spleen cells from DBA/2 mice (H-2^d) (2.5×10^5 in 200 μl /wells) with stimulator cells [2.5×10^5 irradiated (2000R) spleen cells from C57BL/10 mice (H-2^b)]. MEB (1 mM) is added to some wells of the mixed lymphocyte reaction (MLR) 24 hours after the initiation of culture. After an additional 3 days, the MLR cultures are washed, and rested for a further 2 days. The T cells from the MLR are then isolated and reincubated at 2.5×10^5/well with either the initial alloantigen (spleen cells from C57BL/10 mice), or with a third-party alloantigen [spleen cells from C3H/HeJ mice (H-2^k)]. Proliferation in both the primary and secondary MLR is measured on day 5 by assessing incorporation of [^3H]-TdR after a 12 hour pulse.

[3] = system: total anti-ovalbumin antibody in the serum; assay: Primary anti-ovalbumin antibody production in vivo (ELISA), derivatives on Days 1–3; design: species or system C57BL/10 mice; settings: 0.091 mmol ip Days 1–3; serum day 10
Protocol: C57BL/10 mice are injected ip on Day 0 with ovalbumin followed by ip injections of saline, or one of three different butyrate derivatives on Days 1–3.
The butyrate derivatives are tested for their ability to suppress lymphocyte activity in vivo. C57BL/10 mice (5 mice/group) are injected ip with 100 μg of ovalbumin in conjunction with complete Freund's adjuvant on Day 0. In one experiment, the mice also receive one ip injection per day of the butyrate derivatives (0.091 mmol) on Days 1–3. Serum samples are obtained 10 days after the initial injection with ovalbumin, and tested for the presence of anti-ovalbumin antibodies using an ELISA. To perform the ELISA 96 well plates (Costar 3595) are first incubated with ovalbumin (100 μl/well of 100 μg/ml in PBS) overnight at 4° C. The plates are then washed 4 times with PBS and 0.5% Tween 20, blocked with 1% fetal calf serum for 30 minutes at 37° C., and washed again. Individual serum samples are added (diluted 1/100 or 1/1000 in PBS), and the plates are incubated for 2 hours at 20° C. The plates were next washed 7 times with PBS/Tween, and alkaline phosphate (AP)-labeled goat anti-mouse IgG, IgA, IgM (H+L) (Zymed) is added ( 1/1000) for 1 hour at 20° C. The plates are again washed 7 times with PBS/Tween, alkaline phosphate substrate (1 mg/ml) is added. After 10 minutes, Ig levels are quantified by an ELISA reader (absorbance 405 nm). The concentration of anti-ovalbumin is determined by comparison with a standard curve obtained using mouse anti-ovalbumin antibody (Sigma; St. Louis, Mo.). To measure isotype-specific anti-ovalbumin antibodies, serum samples (diluted at 1/300 or 1/1000) are incubated on the ovalbumin-coated plates as described above. […] Ig levels are presented as OD measurements.

[4] = system: lymph node CD4+ T cells; assay: Ovalbumin-stimulated proliferation of lymph node CD4+ T cells from treated mice; format: in vivo, C57BL/10 mice; settings: MEB 0.15 mmol ip on day 2 or day 3; cells restimulated with ovalbumin in vitro
Protocol: C57BL/10 mice are injected ip with ovalbumin/CFA on day 0, followed by a single ip injection of saline or MEB (0.15 mmol) on Days 2 or 3. The mice are reimmunized with ovalbumin sc on Day 10. Isotype-specific anti-ovalbumin antibody generated during the primary immune response (FIG. 4A), and the secondary immune response (FIG. 4B) are measured in the serum at day 10 and day 16, respectively. (FIG. 4C). […] This experiment was repeated, and the proliferation data represents the means of the two experiments.
If the butyrate derivatives suppressed antibody production to a thymus-dependent antigen by inactivating the antigen-specific CD4^+ T cells required for B cell help, then the butyrate derivatives need only be present during an early stage during which the CD4^+ T cells would otherwise be activated by antigen. […] On day 10 the mice receive 100 μg ovalbumin in conjunction with incomplete Freund's adjuvant sc at the base of the tail. After an additional 7 days, cells from the periaortic and mesenteric lymph nodes were enriched for CD4^+ T cells by negative selection (Griffin et al., 1998). […] Proliferation is measured on day 4 by assessing incorporation of [^3H]-TdR after a 12 hour pulse.

[5] = system: KLH-specific Th1 cells (clone D3); assay: IL-2-induced proliferation of Th1 cells in the presence of butyrate derivatives; format: cell-based, C57BL/10 mice
Protocol: KLH-specific Th1 cells (clone D3) are stimulated with IL-2 (10% Con A CM) in the presence of different concentrations of n-butyrate or butyrate derivatives. In FIG. 2A Th1 cell proliferation is measured after 2 days. In FIG. 2B, the inhibitors are washed out after 24 hours, and the Th1 cells reincubated with fresh IL-2-containing medium. Proliferation of the Th1 cells restimulated with IL-2 in the absence of the inhibitors is measured after an additional 2 days. This experiment was repeated three times, and the proliferation data represents the means of the […] experiments.
The KLH-specific were developed in C57BL/10 mice, and characterized as Th1 clones based on their ability to secrete IL-2, but not IL-4. The Th1 clones were passed every 7–14 days using KLH, irradiated syngeneic spleen cells as antigen-presenting cells (APC), and IL-2-containing Con A CM using a previously described protocol (Gilbert et al., 1990).
To test the ability of the butyrate derivatives to suppress T cell activity […], Th1 cells [(5×10^4 cells/well in 96 well plates (Costar)] are stimulated with 10% IL-2-containing Con A CM in the presence of various concentrations of different butyrate derivatives. In some cultures, Th1 cell proliferation is measured after two days. In other cultures, the Th1 cells are washed after 24 hours, and fresh IL-2-containing medium is added. Proliferation is measured in the washed, IL-2-restimulated cultures after an additional 2 days.

CCCC(=O)OCCN1CCOCC1.Cl [MEB, 2-(4-Morpholinyl)ethyl butyrate hydrochloride]
Toxicity [1]: No toxicity
Proliferation in secondary MLR, third-party alloantigen ([2]; MEB 1 mM in primary MLR, restimulated with C3H/HeJ spleen cells): able to proliferate
Proliferation in secondary MLR, initial alloantigen ([2]; MEB 1 mM in primary MLR, restimulated with C57BL/10 spleen cells without MEB): lose their ability to proliferate
Proliferation in secondary culture, exogenous IL-2 ([2]; MEB 1 mM in primary MLR, restimulated with IL-2): able to proliferate
Spleen cell proliferation in primary one-way MLR ([2]; MEB 1 mM, day 5): blocked spleen cell proliferation
Decrease of primary anti-ovalbumin antibody response versus saline [3]: 65%
Antigen-specific proliferation of CD4+ T cells from antigen-primed mice [4]: significant loss of antigen-specific proliferation
Suppression of IL-2-induced proliferation of Th1 cells ([5]; 10% Con A CM, various concentrations, proliferation after 2 days): comparable to n-butyrate
Proliferation to IL-2 after compounds are washed out ([5]; washed after 24 hours, fresh IL-2 medium, additional 2 days): regained their ability to proliferate to IL-2
